Strand notation (5' to 3'): a small letter for the sugar, then the base; units joined by * are phosphorothioate-linked, units joined directly phosphodiester-linked; [ ] holds rarer units or linkages, { } end groups; capitals alone tell only the bases. e = 2'-O-(2-methoxyethyl) (MOE); k = constrained ethyl (cEt); [5mC] = 5-methylcytosine; d = 2'-deoxy (DNA)
What was measured:
[1] = test system: human PKK mRNA; test: Antisense inhibition of human PKK mRNA in HepaRG cells, 1,000 nM, MOE/deoxy/cEt oligonucleotides (Example 3); format: cell-based; details: HepaRG cells, electroporation with 1,000 nM antisense oligonucleotide, approximately 24 hours, primer probe set RTS3454, relative to untreated control cells; experiment of Table 24
How it was run: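 Readout is percent PKK mRNA reduction against untreated controls, by real-time PCR (RTS3454) adjusted for total RNA via RIBOGREEN. Oligonucleotides, phosphorothioate gapmers of 16 nucleosides with cEt, MOE and deoxy sugars, were delivered at 1,000 nM by electroporation to 20,000 HepaRG cells/well for roughly 24 h.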

[2] = test system: human PKK mRNA; test: Dose-dependent antisense inhibition of human PKK in HepaRG cells, 0.11-3.00 uM (Example 6); format: cell-based; details: electroporation, approx. 16 hours, relative to untreated control cells
How it was run: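 Antisense oligonucleotides were tested over 0.11–3.00 μM, delivered by electroporation, with readout after roughly 16 h. Human PKK transcript was measured by real-time PCR (set RTS3454) and adjusted to RIBOGREEN total RNA, giving half-maximal inhibitory concentrations.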

[3] = test system: human PKK mRNA; test: Human PKK mRNA in liver of human KLKB1 transgenic mice (Example 7); format: in vivo; details: twice a week for 3 weeks
Description: (§1) Transgenic mice containing a 37,390 base pair fragment of the human KLKB1 gene sequence (chromosome 4: position 187148672-187179625, accession no: NC_000004.11) were treated with ISIS antisense oligonucleotides selected from studies described above, which were evaluated for efficacy in this model.
(§2) Groups of transgenic mice were injected subcutaneously twice a week for 3 weeks with 2.5 mg/kg/week, 5.0 mg/kg/week, 10 mg/kg/week or 20 mg/kg/week of ISIS 546232, ISIS 546251, ISIS 546254, ISIS 546343, ISIS 546828, ISIS 547455, ISIS 547457, ISIS 547927, and ISIS 548048. One group of transgenic mice was injected subcutaneously twice a week for 3 weeks with PBS. Mice were euthanized 48 hours after the last dose, and organs and plasma were harvested for further analysis.
To evaluate the effect of ISIS oligonucleotides on target reduction, RNA was extracted from liver tissue for real-time PCR analysis of human PKK. Results are presented as percent inhibition of PKK mRNA, relative to PBS control.

[4] = test system: PKK protein; test: Plasma PKK protein levels in human KLKB1 transgenic mice (Example 7); format: in vivo; details: plasma, twice a week for 3 weeks
Description: as §1, §2
Plasma PKK protein levels were evaluated in all groups. Results are presented as percent inhibition of PKK protein, relative to PBS control.

[5] = test system: PKK mRNA; test: PKK mRNA in cynomolgus monkey liver (Example 8); format: in vivo; details: 40 mg/kg s.c., loading then weekly to week 13; day 87 or 88, 48 h after final dose
Description: Cynomolgus monkeys were treated with ISIS antisense oligonucleotides selected from studies described above. Antisense oligonucleotide efficacy and tolerability were evaluated. The human antisense oligonucleotides tested are cross-reactive with the rhesus genomic sequence (GENBANK Accession No. NW_001118167.1 truncated from nucleotides 2358000 to 2391000 and designated herein as SEQ ID NO: 18).
On day 87 or 88, 48 hours after the final dose, RNA was extracted from liver tissue for real-time PCR analysis of PKK using primer probe set RTS3455 (forward sequence […], designated herein as SEQ ID NO: 23; reverse sequence […], designated herein as SEQ ID NO: 24; probe sequence […], designated herein as SEQ ID NO: 25). The results were normalized to the housekeeping gene, Cyclophilin. Results are presented as percent inhibition of PKK mRNA, relative to PBS control.

[6] = test system: human PKK mRNA; test: Antisense inhibition of human PKK mRNA in HepaRG cells, 5,000 nM (Example 2); format: cell-based; details: Table 7; HepaRG cells, electroporation with 5,000 nM antisense oligonucleotide, approx. 24 hours; PKK mRNA by RT-PCR (RTS3454), relative to untreated control cells
How it was run: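 Percent inhibition of PKK mRNA is relative to untreated control, with qRT-PCR (probe set RTS3454) values adjusted to total RNA by RIBOGREEN. Oligonucleotides, fully phosphorothioate 2′-MOE gapmers, were delivered at 5,000 nM by electroporation into 20,000 HepaRG cells/well for about 24 h.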

[7] = test system: human PKK mRNA; test: Dose-dependent antisense inhibition of human PKK in HepaRG cells, 0.19-5.00 uM (Example 5); format: cell-based; details: HepaRG cells
How it was run: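 PKK mRNA knockdown was measured by real-time PCR (primer probe set RTS3454) about 16 h after electroporating 20,000 HepaRG cells per well with oligonucleotide at four doses from 0.19 to 5.00 μM. Levels were adjusted to RIBOGREEN-measured total RNA, and IC50 values were calculated.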

| Substance | % inhibition of PKK mRNA in the transgenic mice liver relative to the PBS control ([3]; 2.5 mg/kg/week sc) [%] | % inhibition of PKK mRNA in the transgenic mice liver relative to the PBS control ([3]; 5 mg/kg/week sc) [%] | % inhibition of PKK mRNA in the transgenic mice liver relative to the PBS control ([3]; 10 mg/kg/week sc) [%] | % inhibition of PKK mRNA in the transgenic mice liver relative to the PBS control ([3]; 20 mg/kg/week sc) [%] | % inhibition of PKK protein levels in the transgenic mice relative to the PBS control ([4]; 2.5 mg/kg/week sc) [%] | % inhibition of PKK protein levels in the transgenic mice relative to the PBS control ([4]; 5 mg/kg/week sc) [%] | % inhibition of PKK protein levels in the transgenic mice relative to the PBS control ([4]; 10 mg/kg/week sc) [%] | % inhibition of PKK protein levels in the transgenic mice relative to the PBS control ([4]; 20 mg/kg/week sc) [%] | % inhibition of PKK mRNA in the cynomolgus monkey liver relative to the PBS control [5] [%] | further results |
| --- | --- | --- | --- | --- | --- | --- | --- | --- | --- | --- |
| 548048 (e[5mC]*eG*kA*dT*dA*dT*d[5mC]*dA*dT*dG*dA*dT*dT*k[5mC]*k[5mC]*e[5mC]) [compound 548048] | 7 | 77 | 72 | 80 | 23 | 70 | 89 | 98 | 95 | % inhibition [1]: 84%; percent inhibition of PKK mRNA, 0.11 μM ([2]; 0.11 μM): 49%; percent inhibition of PKK mRNA, 0.33 μM ([2]; 0.33 μM): 66%; percent inhibition of PKK mRNA, 1.00 μM ([2]; 1.00 μM): 86%; percent inhibition of PKK mRNA, 3.00 μM ([2]; 3.00 μM): 92% |
| 546251 (eG*eG*e[5mC]*eA*eA*dA*d[5mC]*dA*dT*dT*d[5mC]*dA*d[5mC]*dT*d[5mC]*e[5mC]*eT*eT*eT*eA) [compound 546251] | 13 | 51 | 66 | 79 | 22 | 30 | 52 | 69 | 90 | % inhibition [6]: 92%; percent inhibition of PKK at 0.19 μM ([7]; 0.19 μM, electroporation, approximately 16 hours, Table 36): 31%; percent inhibition of PKK at 0.56 μM ([7]; 0.56 μM, electroporation, approximately 16 hours, Table 36): 60%; percent inhibition of PKK at 1.67 μM ([7]; 1.67 μM, electroporation, approximately 16 hours, Table 36): 99%; percent inhibition of PKK at 5.00 μM ([7]; 5.00 μM, electroporation, approximately 16 hours, Table 36): 89%; IC50 ([7]; 4 point dose response, Table 36): 0.5 µM; percent inhibition of PKK mRNA, 0.19 μM ([7]; 0.19 μM antisense oligonucleotide): 19%; percent inhibition of PKK mRNA, 0.56 μM ([7]; 0.56 μM antisense oligonucleotide): 45%; percent inhibition of PKK mRNA, 1.67 μM ([7]; 1.67 μM antisense oligonucleotide): 91%; percent inhibition of PKK mRNA, 5.00 μM ([7]; 5.00 μM antisense oligonucleotide): 97%; IC50 ([7]; 0.19-5.00 μM): 0.6 µM |
